According to patent US9770409B2, “Aerosol formulations of ondansetron and uses thereof” (LUXENA PHARMACEUTICALS, INC., priority 2013, dated 2017):
Values after ≈ are worked out from the molar mass of the structure shown. Values joined by “and” are separate entries in the source; they are usually repeats but may differ in a detail not shown here. Equal values may be shown once. Read-outs that look alike come from different tables or passages of the source.

Legend:
[1] = Solubility of ondansetron in pMDI medium; format: physicochemical; conditions: for solubility at 8 days: organic solvent or mixture, thermodynamic from solid
Protocol: The solubility of ondansetron was measured in a pMDI medium of HFA 134 as well as a mixture of HFA 134 and ethanol.

[2] = Particle size distribution of spray dried ondansetron fine powder by Malvern Mastersizer; format: physicochemical; conditions: typical particle size distribution
Protocol: The Particle Size Distribution of the Ondansetron Fine Powder, prepared by Spray Drying using the above parameters was measured by Malvern Mastersizer (Malvern Instruments, UK) at GEA Process Engineering, Inc., Columbia, Md., USA.

[3] = HFA 134a with Ethanol (9:1), 8 days

| Compound | solubility at 8 days ([1]; HFA 134a (pMDI medium), HFA 134a alone, read-out: Solubility in HFA 134a, Average (RSD)) [µg/mL] | solubility at 8 days ([1]; HFA 134a (pMDI medium), HFA 134a alone, read-out: Solubility in HFA 134a, single determinations) [µg/mL] | Solubility in HFA 134a, single determinations ([1]; HFA 134a alone, 8 days) | Solubility in HFA 134a as % w/w ([1]; HFA 134a alone, 8 days, from gravity of HFA 134a 1.21 g/mL) [% w/w] | Solubility in HFA 134a with Ethanol (9:1) as % w/w [1, 3] [% w/w] | Solubility in HFA 134a with Ethanol (9:1), single determinations [1, 3] | solubility at 8 days ([1]; HFA 134a with ethanol (9:1) (pMDI medium), HFA 134a with Ethanol (9:1), read-out: Solubility in HFA 134a with Ethanol (9:1), Average (RSD)) [µg/mL] | solubility at 8 days ([1]; HFA 134a with ethanol (9:1) (pMDI medium), HFA 134a with Ethanol (9:1), read-out: Solubility in HFA 134a with Ethanol (9:1), single determinations) [µg/mL] | Cumulative % on <10 μm [2] [%] | D10 [2] [μm] | D50 [2] [μm] | D90 [2] [μm] | Mean Size [2] [μm] |
| --- | --- | --- | --- | --- | --- | --- | --- | --- | --- | --- | --- | --- | --- |
| Cc1nccn1CC1CCc2c(c3ccccc3n2C)C1=O (stereo not shown) [ondansetron] | 37.8 (≈ 129 µM) | 34.7 (≈ 118 µM) | 35.97 µg/mL and 40.27 µg/mL and 40.26 µg/mL | 0.00312 | 0.01668 | 196.85 µg/mL and 215.75 µg/mL and 195.17 µg/mL | 202 (≈ 688 µM) | 199 (≈ 680 µM) | – | – | – | – | – |
| Cc1nccn1CC1CCc2c(c3ccccc3n2C)C1=O (stereo not shown) [Ondansetron Fine Powder, ondansetron] | – | – | – | – | – | – | – | – | 99.5 | 3.23 | 5.01 | 7.22 | 4.80 |
